Our source for the MIC and LD50 values is US4195171A, “Derivatives of an antibiotic XK-62-2 and process for the production thereof” (Abbott Laboratories, priority 1975, dated 1980).

Data set [1] relates to Pseudomonas aeruginosa BMH 1. Briefly: Antibacterial spectrum, MIC by agar dilution method. The class given is cell-based. The settings on record: BMH1, pH 7.2, read-out: Minimum Inhibitory Concentration. From the text: (§1) XK-62-2, 1-N-[L-(-)-α-hydroxy-γ-aminobutyryl] XK-62-2, Compounds (I-1), (I-2), (II-1) and (II-2) against various Gram-negative and Gram-positive bacteria determined by agar dilution method at pH 7.2.
In general terms: Agar dilution tests growth on a series of plates holding different concentrations.

The test system of data set [2] is Pseudomonas aeruginosa E-2. The description is as above. The class given is cell-based.
From the text: as §1

Data set [3] relates to Pseudomonas aeruginosa NC-5. Described as above. Type of data set: cell-based.
From the text: as §1

A further data set deals with Sarcina lutea ATCC 9341. The data set is described as above. Type of data set: cell-based. The settings on record: Micrococcus luteus, ATCC9341, pH 7.2, read-out: Minimum Inhibitory Concentration.
From the text: as §1

Data set [4] deals with Streptococcus faecalis ATCC 10541. Described as above. To be noted: Enterococcus faecalis, ATCC10541, pH 7.2, read-out: Minimum Inhibitory Concentration. Type of data set: cell-based.
From the text: as §1

Data set [5] has as its system bacillus subtilis ATCC 6633. Described as above. The class given is cell-based. The settings on record: ATCC6633, pH 7.2, read-out: Minimum Inhibitory Concentration.
From the text: as §1

In data set [6] the test system is Pseudomonas aeruginosa KY Z-444. Described as above. Type of data set: cell-based.
From the text: as §1
(§2) ^8 produces 6N-acetyltransferase Type III

In data set [7] the test system is Pseudomonas aeruginosa Z-445. The description is as above. The class given is cell-based. To be noted: Z445, pH 7.2, strain produces 6N-acetyltransferase Type III, read-out: Minimum Inhibitory Concentration.
From the text: as §1, §2

The next data set has as its system Providencia sp. 164. The data set is described as above. The settings on record: pH 7.2, strain produces gentamicin acetyltransferase Type II, read-out: Minimum Inhibitory Concentration. Type of data set: cell-based.
From the text: as §1
^9 produces gentamicin acetyltransferase Type II

Data set [8] is described as follows: Acute toxicity (LD50) in mice. To be noted: mouse, in vivo, route not stated. The text has this: XK-62-2, Compounds (I-2), (II-1) and (II-2) in mice.
Setting [9] is: E2, agar dilution, pH 7.2, read-out: Minimum Inhibitory Concentration.
Where [10] appears, read: NC5, agar dilution, pH 7.2, read-out: Minimum Inhibitory Concentration.
The mark [11] stands for this setting: KYZ444, agar dilution, pH 7.2, strain produces 6N-acetyltransferase Type III, read-out: Minimum Inhibitory Concentration.
The mark [12] stands for this setting: E2, pH 7.2, read-out: Minimum Inhibitory Concentration.
Where [13] appears, read: NC5, pH 7.2, read-out: Minimum Inhibitory Concentration.

SMILES strings stand for the structures. In brackets after ≈: the same amount, converted by molar mass. Like-named read-outs stand apart in the source and are kept apart here.

With `CNCC1CCC(N)C(OC2C(N)CC(NC(=O)C(O)CN)C(OC3OCC(C)(O)C(NC)C3O)C2O)O1` (racemic) [1-N-(DL-α-hydroxy-β-aminopropionyl) XK-62-2, reference compound], the MIC was 1.56 µg/mL (≈ 2.83 µM) in data set [1]; 3.12 µg/mL (≈ 5.67 µM) in data set [2] (setting [9]); 3.12 µg/mL (≈ 5.67 µM) in data set [3] (setting [10]); 0.4 µg/mL (≈ 0.726 µM) with Sarcina lutea ATCC 9341; 12.5 µg/mL (≈ 22.7 µM) in data set [4]; 0.2 µg/mL (≈ 0.363 µM) in data set [5]. Moreover, the MIC in data set [6] (setting [11]) was 1.56 µg/mL (≈ 2.83 µM); in data set [7] it was 3.12 µg/mL (≈ 5.67 µM); with Providencia sp. 164, 6.25 µg/mL (≈ 11.4 µM). Moreover, the 50% lethal dose (LD50) (in general, the dose at which mortality reaches 50%) in [8] was found to be 185 mg/kg.
With `CC1(O)COC(OC2C(NC(=O)C(O)CN)CC(N)C(OC3OC(CN)CCC3N)C2O)C(O)C1N` (racemic) [Compound I-1, 3"-N, 6'-N-didemethyl-1-N-(DL-α-hydroxy-β-aminopropionyl) XK-62-2], the MIC in data set [1] worked out at 0.78 µg/mL (≈ 1.49 µM); in data set [2] (setting [9]), 1.56 µg/mL (≈ 2.99 µM); in [3] (setting [10]), 0.78 µg/mL (≈ 1.49 µM); in the data set with Sarcina lutea ATCC 9341 it was 0.78 µg/mL (≈ 1.49 µM); in data set [4] it was 12.5 µg/mL (≈ 23.9 µM); in data set [5], 0.1 µg/mL (≈ 0.191 µM). Besides, the MIC in [6] (setting [11]) was determined as 1.56 µg/mL (≈ 2.99 µM); in data set [7], 6.25 µg/mL (≈ 12 µM); with Providencia sp. 164 it was 6.25 µg/mL (≈ 12 µM).
For `CNCC1CCC(N)C(OC2C(N)CC(NC(=O)C(O)CN)C(OC3OCC(C)(O)C(N)C3O)C2O)O1` (racemic) [II-1, 3"-N-demethyl-1-N-(DL-α-hydroxy-β-aminopropionyl) XK-62-2], the MIC in data set [1] was determined as 1.56 µg/mL (≈ 2.91 µM); in [2] (setting [12]) it was 3.12 µg/mL (≈ 5.81 µM); in [3] (setting [13]), 3.12 µg/mL (≈ 5.81 µM); with Sarcina lutea ATCC 9341 it was 1.56 µg/mL (≈ 2.91 µM); in data set [4] it was 25 µg/mL (≈ 46.6 µM); in data set [5], 0.2 µg/mL (≈ 0.373 µM). The MIC in data set [6] (setting [11]) amounted to 1.56 µg/mL (≈ 2.91 µM); in [7] it was 6.25 µg/mL (≈ 11.6 µM); in the data set on Providencia sp. 164, 25 µg/mL (≈ 46.6 µM). In data set [8], this molecule gave an LD50 of 175 mg/kg.
For `CNCC1CCC(N)C(OC2C(N)CC(NC(=O)C(O)CCN)C(OC3OCC(C)(O)C(NC)C3O)C2O)O1` (single isomer, unassigned) [1-N-[L-(-)-α-hydroxy-γ-aminobutyryl] XK-62-2, reference compound], the MIC was determined as 0.78 µg/mL (≈ 1.38 µM) in [1]; 3.12 µg/mL (≈ 5.53 µM) in data set [2] (setting [9]); 3.12 µg/mL (≈ 5.53 µM) in [3] (setting [10]); 0.2 µg/mL (≈ 0.354 µM) in the data set with Sarcina lutea ATCC 9341; 6.25 µg/mL (≈ 11.1 µM) in data set [4]; 0.1 µg/mL (≈ 0.177 µM) in data set [5]. In addition, the MIC in data set [6] (setting [11]) is 1.56 µg/mL (≈ 2.76 µM); in data set [7] it was 6.25 µg/mL (≈ 11.1 µM); with Providencia sp. 164 it was 6.25 µg/mL (≈ 11.1 µM). The molecule also returned an LD50 in data set [8] of 180 mg/kg.
For the molecule `CC1(O)COC(OC2C(NC(=O)C(O)CCN)CC(N)C(OC3OC(CN)CCC3N)C2O)C(O)C1N` (single isomer, unassigned) [Compound I-2, 3"-N, 6'-N-didemethyl-1-N-[L-(-)-α-hydroxy-γ-aminobutyryl] XK-62-2], the MIC in data set [1] was 0.78 µg/mL (≈ 1.45 µM); in data set [2] (setting [12]) it was 1.56 µg/mL (≈ 2.91 µM); in data set [3] (setting [13]) it was 1.56 µg/mL (≈ 2.91 µM); in the data set with Sarcina lutea ATCC 9341, 0.78 µg/mL (≈ 1.45 µM); in [4] it was 12.5 µg/mL (≈ 23.3 µM); in data set [5] it was 0.1 µg/mL (≈ 0.186 µM). Further, the MIC in [6] (KYZ444, pH 7.2, read-out: Minimum Inhibitory Concentration) was 1.56 µg/mL (≈ 2.91 µM); in data set [7], 6.25 µg/mL (≈ 11.6 µM); in the data set on Providencia sp. 164 it was 6.25 µg/mL (≈ 11.6 µM). In [8], this molecule yielded a median lethal dose (LD50) of 200 mg/kg.
For the molecule `CNCC1CCC(N)C(OC2C(N)CC(NC(=O)C(O)CCN)C(OC3OCC(C)(O)C(N)C3O)C2O)O1` (single isomer, unassigned) [II-2, 3"-N-demethyl-1-N-[L-(-)-α-hydroxy-γ-aminobutyryl] XK-62-2], the MIC in data set [1] was determined as 1.56 µg/mL (≈ 2.83 µM); in data set [2] (setting [12]) it was 3.12 µg/mL (≈ 5.67 µM); in data set [3] (setting [13]), 3.12 µg/mL (≈ 5.67 µM); in the data set with Sarcina lutea ATCC 9341, 1.56 µg/mL (≈ 2.83 µM); in [4], 25 µg/mL (≈ 45.4 µM); in data set [5], 0.2 µg/mL (≈ 0.363 µM). The MIC in data set [6] (setting [11]) worked out at 1.56 µg/mL (≈ 2.83 µM); in [7] it was 6.25 µg/mL (≈ 11.4 µM); in the data set on Providencia sp. 164, 12.5 µg/mL (≈ 22.7 µM). The molecule further displayed an LD50 in [8] of 250 mg/kg.
